Counter-ions that a name gives are not always drawn.
Assays:
Type in all cases: biochemical
[1] = biological target: human TYK2 catalytic kinase (JH1) domain (Homo sapiens (Human), UniProt P29597); experiment: ADP-Glo Kinase Assay, recombinant TYK2 catalytic kinase (JH1) domain; conditions: recombinant JH1 domain 2 nM, 10 μM ATP, JAK3-974 peptide, mean, read-out: TYK2 biochem IC50 (nM) Mean
In short: (§1)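 Kinase 4 nM JAK1 / 0.2 nM JAK2 / 0.3 nM JAK3 / 2 nM TYK2; 50 μM peptide; 100 min. Unused ATP depleted, ADP→ATP, luciferase luminescence. 11-pt 3-fold series from 10 or 1 μM; normalized, 4PL fit → IC50.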

[2] = biological target: human JAK1 catalytic kinase (JH1) domain (Homo sapiens (Human), UniProt P23458); experiment: ADP-Glo Kinase Assay, recombinant JAK1 catalytic kinase (JH1) domain; conditions: recombinant JH1 domain 4 nM, 35 μM ATP, JAK3-342 peptide, mean, read-out: JAK1 biochem IC50 (nM) Mean
Sequence of human JAK1 catalytic kinase (JH1) domain (P23458 875-1153): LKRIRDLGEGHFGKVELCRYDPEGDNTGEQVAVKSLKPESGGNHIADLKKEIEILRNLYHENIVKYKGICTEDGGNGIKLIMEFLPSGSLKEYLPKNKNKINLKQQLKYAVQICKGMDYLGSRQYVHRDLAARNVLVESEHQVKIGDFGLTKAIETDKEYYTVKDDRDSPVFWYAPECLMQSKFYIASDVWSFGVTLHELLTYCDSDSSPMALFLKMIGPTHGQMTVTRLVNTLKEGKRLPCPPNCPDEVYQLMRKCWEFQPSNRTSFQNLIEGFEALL
In short: as §1

[3] = biological target: human JAK2 catalytic kinase (JH1) domain (Homo sapiens (Human), UniProt O60674); experiment: ADP-Glo Kinase Assay, recombinant JAK2 catalytic kinase (JH1) domain; conditions: recombinant JH1 domain 0.2 nM, 15 μM ATP, JAK3-974 peptide, mean, read-out: JAK2 biochem IC50 (nM) Mean
Sequence of human JAK2 catalytic kinase (JH1) domain (O60674 849-1124): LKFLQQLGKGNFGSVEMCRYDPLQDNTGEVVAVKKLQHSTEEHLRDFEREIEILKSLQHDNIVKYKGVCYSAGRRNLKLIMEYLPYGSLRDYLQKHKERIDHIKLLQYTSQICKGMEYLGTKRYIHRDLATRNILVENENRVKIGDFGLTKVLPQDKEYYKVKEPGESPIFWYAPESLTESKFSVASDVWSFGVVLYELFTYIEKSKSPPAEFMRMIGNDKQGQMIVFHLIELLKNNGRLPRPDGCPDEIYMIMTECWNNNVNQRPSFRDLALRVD
In short: as §1

[4] = biological target: human JAK3 catalytic kinase (JH1) domain (Homo sapiens (Human), UniProt P52333); experiment: ADP-Glo Kinase Assay, recombinant JAK3 catalytic kinase (JH1) domain; conditions: recombinant JH1 domain 0.3 nM, 4 μM ATP, JAK3-974 peptide, mean, read-out: JAK3 biochem IC50 (nM) Mean
Sequence of human JAK3 catalytic kinase (JH1) domain (P52333 822-1111): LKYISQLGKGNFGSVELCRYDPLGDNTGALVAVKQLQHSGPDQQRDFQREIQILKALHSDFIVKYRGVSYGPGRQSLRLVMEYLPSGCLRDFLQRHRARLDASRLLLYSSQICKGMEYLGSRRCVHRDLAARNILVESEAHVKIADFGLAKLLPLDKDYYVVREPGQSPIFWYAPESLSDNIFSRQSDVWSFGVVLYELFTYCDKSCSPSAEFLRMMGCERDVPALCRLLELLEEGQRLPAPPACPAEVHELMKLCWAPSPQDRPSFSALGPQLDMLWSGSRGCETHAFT
In short: as §1

Sequence of human TYK2 catalytic kinase (JH1) domain (P29597 897-1176): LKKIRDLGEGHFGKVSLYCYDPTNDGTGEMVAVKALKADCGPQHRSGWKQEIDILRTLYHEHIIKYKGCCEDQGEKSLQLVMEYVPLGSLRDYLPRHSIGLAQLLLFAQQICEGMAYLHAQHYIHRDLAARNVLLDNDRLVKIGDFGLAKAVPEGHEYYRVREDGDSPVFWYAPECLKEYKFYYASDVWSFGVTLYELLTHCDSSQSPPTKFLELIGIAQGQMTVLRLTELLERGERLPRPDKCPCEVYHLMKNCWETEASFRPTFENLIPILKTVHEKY

| SMILES | IC50 [1] | IC50 [2] | IC50 [3] | IC50 [4] |
| --- | --- | --- | --- | --- |
| O=C(C1CC1)N1C2CCC1CN(c1ncnn3cc(-c4cnn(C5CCC5)c4)cc13)C2 [Example 149] | 141 nM | 942 nM | 3130 nM | 3010 nM |
| N#Cc1cc(-c2cc3c(N4CC5CCC(C4)N5C(=O)[C@@H]4C[C@H]4F)ncnc3[nH]2)ccn1 [Example 233, 4-(4-(8-((1S,2R)-2-fluorocyclopropane-1-carbonyl)-3,8-diazabicyclo[3.2.1]octan-3-yl)-7H-pyrrolo[2,3-d]pyrimidin-6-yl)picolinonitrile] | 15.4 nM | 174 nM | 248 nM | 3240 nM |
| COc1cc(-c2cc3c(N4CC5CCC(C4)N5C(=O)[C@@H]4C[C@H]4F)ccnc3[nH]2)ccn1 [Example 245, ((1S,2R)-2-fluorocyclopropyl)(3-(2-(2-methoxypyridin-4-yl)-1H-pyrrolo[2,3-b]pyridin-4-yl)-3,8-diazabicyclo[3.2.1]octan-8-yl)methanone] | 0.4 nM | 7 nM | 11 nM | 115 nM |
| CN(C)c1cc(-c2cc3c(N4CC5CCC(C4)N5C(=O)[C@@H]4C[C@H]4F)ccnn3c2)cnn1 [Example 138, (3-(6-(6-(dimethylamino)pyridazin-4-yl)pyrrolo[1,2-b]pyridazin-4-yl)-3,8-diazabicyclo[3.2.1]octan-8-yl)((1S,2R)-2-fluorocyclopropyl)methanone] | 13.8 nM | 57 nM | 395 nM | 3930 nM |
| O=C([C@@H]1C[C@H]1F)N1C2CCC1CN(c1ncnc3[nH]c(-c4ccnnc4)cc13)C2 [Example 234, ((1S,2R)-2-fluorocyclopropyl)(3-(6-(pyridazin-4-yl)-7H-pyrrolo[2,3-d]pyrimidin-4-yl)-3,8-diazabicyclo[3.2.1]octan-8-yl)methanone] | 28.6 nM | 388 nM | 598 nM | 3200 nM |
| CC1(C)C(C(=O)N2C3CCC2CN(c2ncnn4cc(-c5cnn(C(F)F)c5)cc24)C3)C1(F)F (centres unmarked) [Example 13, (2,2-difluoro-3,3-dimethylcyclopropyl)(3-(6-(1-(difluoromethyl)-1H-pyrazol-4-yl)pyrrolo[2,1-f][1,2,4]triazin-4-yl)-3,8-diazabicyclo[3.2.1]octan-8-yl)methanone] | 688 nM | 3360 nM | 9150 nM | 7220 nM |
| O=C(C1CC1)N1C2CCC1CN(c1ncnn3cc(-c4cnn(C(F)F)c4)cc13)C2 [Example 144] | 622 nM | 9320 nM | 10000 nM | 10000 nM |
| O=C([C@@H]1C[C@H]1F)N1C2CCC1CN(c1ncnn3cc(-c4cnn(C(F)F)c4)cc13)C2 [Example 76, (3-(6-(1-(difluoromethyl)-1H-pyrazol-4-yl)pyrrolo[2,1-f][1,2,4]triazin-4-yl)-3,8-diazabicyclo[3.2.1]octan-8-yl)((1S,2R)-2-fluorocyclopropyl)methanone] | 23.1 nM | 574 nM | 850 nM | 6270 nM |
| Cn1cnc(-c2cc3c(N4CC5CCC(C4)N5C(=O)C4CC4)ncnn3c2)c1 [Example 143, Cyclopropyl(3-(6-(1-methyl-1H-imidazol-4-yl)pyrrolo[2,1-f][1,2,4]triazin-4-yl)-3,8-diazabicyclo[3.2.1]octan-8-yl)methanone] | 533 nM | 10000 nM | 9940 nM | 9690 nM |
| Cn1ncc(-c2cc3c(N4CC5CCC(C4)N5C(=O)C4(F)CC4)ccnc3[nH]2)c1F [Example 242, (3-(2-(5-fluoro-1-methyl-1H-pyrazol-4-yl)-1H-pyrrolo[2,3-b]pyridin-4-yl)-3,8-diazabicyclo[3.2.1]octan-8-yl)(1-fluorocyclopropyl)methanone] | 113 nM | 362 nM | 690 nM | 296 nM |
| O=C([C@@H]1C[C@H]1F)N1C2CCC1CN(c1ccnn3cc([C@@H]4CC4(F)F)cc13)C2 (single isomer, unassigned) [Example 136] | 381 nM | 6180 nM | ≥ 10000 nM | ≥ 10000 nM |
| Cn1cc(-c2cc3c(N4CC5CCC(C4)N5C(=O)[C@H]4C[C@@H]4F)ncnn3c2)cn1 (single isomer, unassigned) [Example 81] | 31.2 nM | 1420 nM | 1450 nM | 5610 nM |
| Cn1cc(-c2cc3c(N4CC5CCC(C4)N5C(=O)[C@@H]4C[C@@H]4F)ncnn3c2)cn1 [Example 80, ((1S,2S)-2-fluorocyclopropyl)(3-(6-(1-methyl-1H-pyrazol-4-yl)pyrrolo[2,1-f][1,2,4]triazin-4-yl)-3,8-diazabicyclo[3.2.1]octan-8-yl)methanone] | 483 nM | 1340 nM | 8020 nM | 2050 nM |
| CNc1cncc(-c2cc3c(N4CC5CCC(C4)N5C(=O)[C@@H]4C[C@H]4F)ccnn3c2)n1 [Example 127, ((1S,2R)-2-fluorocyclopropyl)(3-(6-(6-(methylamino)pyrazin-2-yl)pyrrolo[1,2-b]pyridazin-4-yl)-3,8-diazabicyclo[3.2.1]octan-8-yl)methanone] | 18 nM | 211 nM | 300 nM | 3140 nM |
| Cc1cc(-c2cc3c(N4CC5CCC(C4)N5C(=O)[C@@H]4C[C@H]4F)ccnn3c2)ncn1 [Example 106, ((1S,2R)-2-fluorocyclopropyl)(3-(6-(6-methylpyrimidin-4-yl)pyrrolo[1,2-b]pyridazin-4-yl)-3,8-diazabicyclo[3.2.1]octan-8-yl)methanone] | 13.7 nM | 448 nM | 178 nM | 3200 nM |
| Cn1cc(-c2cc3c(N4CC5CCC(C4)N5C(=O)[C@@H]4C[C@H]4F)ncnn3c2)cn1 [Example 82, ((1S,2R)-2-fluorocyclopropyl)(3-(6-(1-methyl-1H-pyrazol-4-yl)pyrrolo[2,1-f][1,2,4]triazin-4-yl)-3,8-diazabicyclo[3.2.1]octan-8-yl)methanone] | 400 nM | 1650 nM | 8860 nM | 3060 nM |
| O=C([C@@H]1C[C@H]1F)N1C2CCC1CN(c1ccnc3[nH]c(N4CCOCC4)nc13)C2 [Example 212, ((1S,2R)-2-fluorocyclopropyl)(3-(2-morpholino-3H-imidazo[4,5-b]pyridin-7-yl)-3,8-diazabicyclo[3.2.1]octan-8-yl)methanone] | 30.5 nM | 322 nM | 650 nM | 4220 nM |
| C[C@]1(F)C[C@@H](C(=O)N2C3CCC2CN(c2ncnn4cc(-c5cnn(C(F)F)c5)cc24)C3)C1 [Example 33, (3-(6-(1-(difluoromethyl)-1H-pyrazol-4-yl)pyrrolo[2,1-f][1,2,4]triazin-4-yl)-3,8-diazabicyclo[3.2.1]octan-8-yl)((1s,3s)-3-fluoro-3-methylcyclobutyl)methanone trifluoroacetate] | 476 nM | 854 nM | 6140 nM | 4430 nM |
| N#Cc1cc(-c2nc3c(N4CC5CCC(C4)N5C(=O)[C@@H]4C[C@H]4F)ccnc3[nH]2)ccn1 [Example 204, 4-(7-(8-((1S,2R)-2-fluorocyclopropane-1-carbonyl)-3,8-diazabicyclo[3.2.1]octan-3-yl)-3H-imidazo[4,5-b]pyridin-2-yl)picolinonitrile] | 12 nM | 36 nM | 49 nM | 716 nM |
| Cn1cc(-c2cc3c(N4CC5CCC(C4)N5C(=O)C4CC4(F)F)ncnn3c2)cn1 (centres unmarked) [Example 63, (2,2-difluorocyclopropyl)(3-(6-(1-methyl-1H-pyrazol-4-yl)pyrrolo[2,1-f][1,2,4]triazin-4-yl)-3,8-diazabicyclo[3.2.1]octan-8-yl)methanone] | 117 nM | 787 nM | 3050 nM | 4530 nM |
| O=C([C@@H]1C[C@H]1F)N1C2CCC1CN(c1ccnn3cc(-c4ccnc(N5CC(F)(F)C5)c4)cc13)C2 [Example 120, (3-(6-(2-(3,3-difluoroazetidin-1-yl)pyridin-4-yl)pyrrolo[1,2-b]pyridazin-4-yl)-3,8-diazabicyclo[3.2.1]octan-8-yl)((1S,2R)-2-fluorocyclopropyl)methanone] | 85.2 nM | 1650 nM | 636 nM | 10000 nM |
| O=C(C1CC1)N1C2CCC1CN(c1c(F)cnn3cc(-c4cnn(C(F)F)c4)cc13)C2 [Example 140, cyclopropyl(3-(6-(1-(difluoromethyl)-1H-pyrazol-4-yl)-3-fluoropyrrolo[1,2-b]pyridazin-4-yl)-3,8-diazabicyclo[3.2.1]octan-8-yl)methanone] | 56 nM | 834 nM | 1480 nM | 738 nM |
| Cn1cc(-c2cc3c(N4CC5CCC(C4)N5S(=O)(=O)C4CC4)ccnn3c2)cn1 [Example 189, 4-(8-(cyclopropylsulfonyl)-3,8-diazabicyclo[3.2.1]octan-3-yl)-6-(1-methyl-1H-pyrazol-4-yl)pyrrolo[1,2-b]pyridazine] | 46.5 nM | 1210 nM | 208 nM | 1020 nM |
